# Assay results from patent US12281122B1, “PI3K inhibitors” (Cogent Biosciences, Inc., priority 2023, dated 2025).
# Key:
# [1] = test system: T47D (PI3Kα-H1047R) cell line; test: HTRF phospho-AKT(S473) cell assay in T47D cells; assay type: cell-based, human; conditions: Homo sapiens, 2 hours compound incubation
# In short: (§1)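 T47D (PI3Kα-H1047R; RPMI, 10% FBS, insulin) and SKBR3 (wild-type PI3Kα; McCoy's 5A, 10% FBS) cells treated 2 h at 37 °C with 12-point 1:3 dilutions, top 5 μM and 10 μM respectively, ≤0.5% DMSO. SKBR3 stimulated with 70 ng/ml PDGF-BB for the last 15 min; lysate pAKT(S473) by HTRF, IC50 from curves.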
# [2] = test system: SKBR3 (PI3Kα-Wild Type) cell line; test: HTRF phospho-AKT(S473) cell assay in SKBR3 cells; assay type: cell-based, human; conditions: Homo sapiens, SK-BR-3, 2 hours compound incubation, PDGF-BB stimulated
# In short: as §1
# [3] = HTRF phospho-AKT(S473), T47D (PI3Kα-H1047R) cells
# [4] = HTRF phospho-AKT(S473), SKBR3 (PI3Kα-Wild Type) cells
# [5] = T47D (PI3Kα-H1047R) cells, HTRF phospho-AKT(S473)
# [6] = SKBR3 (PI3Kα-Wild Type) cells, HTRF phospho-AKT(S473)
"IC50 [1, 3] [µM]","IC50 [2, 4] [µM]",further results,Compound
1 to 5,≥ 5,,"Cc1cc([C@@H](C)Nc2ccc(Cl)nc2C(=O)NS(C)(=O)=O)c2nc(N3CCC[C@H](c4nccc(C)n4)C3)n(C)c(=O)c2c1 (relative stereo) [Compound 648, 6-chloro-3-(((R)-1-(3,6-dimethyl-2-((R*)-3-(4-methylpyrimidin-2-yl)piperidin-1-yl)-4-oxo-3,4-dihydroquinazolin-8-yl)ethyl)amino)-N-(methylsulfonyl) picolinamide]"
0.25 to 0.5,≥ 5,,"COc1ccc(N2C[C@@H]3C[C@H]2CN3c2nc3c([C@@H](C)Nc4ccc(Cl)nc4C(=O)NS(C)(=O)=O)cc(C)cc3c(=O)n2C)cn1 [Compound 636, 6-chloro-3-(((R)-1-(2-((1S,4S)-5-(6-methoxypyridin-3-yl)-2,5-diazabicyclo [2.2.1]heptan-2-yl)-3,6-dimethyl-4-oxo-3,4-dihydroquinazolin-8-yl)ethyl)amino)-N-(methylsulfonyl) picolinamide]"
< 0.25,1 to 5,,"Cc1cc([C@@H](C)Nc2ccc(Cl)nc2C(=O)NS(C)(=O)=O)c2nc(-c3ccc4nn(CC(F)(F)F)cc4c3)n(C)c(=O)c2c1 [Compound 784, (R)-6-chloro-3-((1-(3,6-dimethyl-4-oxo-2-(2-(2,2,2-trifluoroethyl)-2H-indazol-5-yl)-3,4-dihydroquinazolin-8-yl)ethyl)amino)-N-(methylsulfonyl) picolinamide]"
,,"IC50 [1, 5]: < 0.25 µM; IC50 [2, 6]: 1 to 5 µM","Cc1cc([C@@H](C)Nc2ccc(Cl)nc2C(=O)NS(C)(=O)=O)c2nc(N3CCN(c4cnn(CC(F)(F)F)c4)CC3)n(C)c(=O)c2c1 [Compound 193, (R)-6-chloro-3-((1-(3,6-dimethyl-4-oxo-2-(4-(1-(2,2,2-trifluoroethyl)-1H-pyrazol-4-yl)piperazin-1-yl)-3,4-dihydroquinazolin-8-yl)ethyl)amino)-N-(methylsulfonyl) picolinamide]"
,,"IC50 ([1]; T47D (PI3Kα-H1047R) cell line, phospho-AKT(S473) HTRF): < 0.25 µM; IC50 ([2]; SKBR3 (PI3Kα-Wild Type) cell line, phospho-AKT(S473) HTRF): 1 to 5 µM","Cc1cc([C@@H](C)Nc2ccc(Cl)nc2C(=O)NS(C)(=O)=O)c2nc(-c3ccc4nn(-c5ncccn5)cc4c3)n(C)c(=O)c2c1 [Compound 850, (R)-6-chloro-3-((1-(3,6-dimethyl-4-oxo-2-(2-(pyrimidin-2-yl)-2H-indazol-5-yl)-3,4-dihydroquinazolin-8-yl)ethyl)amino)-N-(methylsulfonyl) picolinamide]"
< 0.25,≥ 5,,"Cc1cc([C@@H](C)Nc2ccc(Cl)nc2C(=O)NS(C)(=O)=O)c2nc(N3C[C@@H]4[C@H](C3)[C@H]4c3c(F)cnn3C3CC3)n(C)c(=O)c2c1 [Compound 570, 6-chloro-3-(((R)-1-(2-((1R,5S,6R)-6-(1-cyclopropyl-4-fluoro-1H-pyrazol-5-yl)-3-azabicyclo[3.1.0]hexan-3-yl)-3,6-dimethyl-4-oxo-3,4-dihydroquinazolin-8-yl)ethyl)amino)-N-(methylsulfonyl) picolinamide]"
< 0.25,1 to 5,,"Cc1cc([C@@H](C)Nc2ccc(Cl)nc2C(=O)NS(C)(=O)=O)c2nc(N3CCC(c4ccnn4CC(F)(F)F)CC3)n(C)c(=O)c2c1 [Compound 488, (R)-6-chloro-3-((1-(3,6-dimethyl-4-oxo-2-(4-(1-(2,2,2-trifloroethyl)-1H-pyrazol-5-yl)piperidin-1-yl)-3,4-dihydroquinazolin-8-yl)ethyl)amino)-N-(methylsulfonyl) picolinamide]"
0.25 to 0.5,≥ 5,,"Cc1cc([C@@H](C)Nc2ccc(Cl)nc2C(=O)NS(C)(=O)=O)c2nc(N3C[C@@H]4[C@H](C3)[C@H]4n3cc(Cl)cn3)n(C)c(=O)c2c1 [Compound 583, 6-chloro-3-(((R)-1-(2-((1R,5S,6S)-6-(4-chloro-1H-pyrazol-1-yl)-3-azabicyclo[3.1.0]hexan-3-yl)-3,6-dimethyl-4-oxo-3,4-dihydroquinazolin-8-yl)ethyl)amino)-N-(methylsulfonyl) picolinamide]"
< 0.25,1 to 5,,"Cc1cc([C@@H](C)Nc2ccc(Cl)nc2C(=O)NS(C)(=O)=O)c2nc(N3C[C@@H]4[C@H](C3)[C@H]4c3coc(C)n3)n(C)c(=O)c2c1 [Compound 448, 6-chloro-3-(((R)-1-(3,6-dimethyl-2-((1R,5S,6R)-6-(2-methyloxazol-4-yl)-3-azabicyclo[3.1.0]hexan-3-yl)-4-oxo-3,4-dihydroquinazolin-8-yl)ethyl)amino)-N-(methylsulfonyl) picolinamide]"
< 0.25,1 to 5,,"Cc1cc([C@@H](C)Nc2ccc(Cl)nc2C(=O)NS(C)(=O)=O)c2nc(-c3ccc4c(c3)C(=O)N(C)CC4)n(C)c(=O)c2c1 [Compound 779, (R)-6-chloro-3-((1-(3,6-dimethyl-2-(2-methyl-1-oxo-1,2,3,4-tetrahydroisoquinolin-7-yl)-4-oxo-3,4-dihydroquinazolin-8-yl)ethyl)amino)-N-(methylsulfonyl) picolinamide]"
,,"IC50 [1, 5]: < 0.25 µM; IC50 [2, 6]: 1 to 5 µM","Cc1cc([C@@H](C)Nc2ccc(Cl)nc2C(=O)NS(C)(=O)=O)c2nc(N3CCC[C@H](c4ccc(C)nc4)C3)n(C)c(=O)c2c1 (relative stereo) [Compound 237, 6-chloro-3-(((R)-1-(3,6-dimethyl-2-((R*)-3-(6-methylpyridin-3-yl)piperidin-1-yl)-4-oxo-3,4-dihydroquinazolin-8-yl)ethyl)amino)-N-(methylsulfonyl) picolinamide]"
0.25 to 0.5,1 to 5,,"Cc1cc([C@@H](C)Nc2ccc(Cl)nc2C(=O)NS(C)(=O)=O)c2nc(N3C[C@@H]4C[C@H]3CN4c3nccnc3C)n(C)c(=O)c2c1 [Compound 726, 6-chloro-3-(((R)-1-(3,6-dimethyl-2-((1S,4S)-5-(3-methylpyrazin-2-yl)-2,5-diazabicyclo[2.2.1]heptan-2-yl)-4-oxo-3,4-dihydroquinazolin-8-yl)ethyl)amino)-N-(methylsulfonyl) picolinamide]"
0.25 to 0.5,≥ 5,,"Cc1cc([C@@H](C)Nc2ccc(Cl)nc2C(=O)NS(C)(=O)=O)c2nc(N3CCC[C@@H](c4ccnn4C(F)F)C3)n(C)c(=O)c2c1 (relative stereo) [Compound 771, 6-chloro-3-(((R)-1-(2-((R*)-3-(1-(difluoromethyl)-1H-pyrazol-5-yl)piperidin-1-yl)-3,6-dimethyl-4-oxo-3,4-dihydroquinazolin-8-yl)ethyl)amino)-N-(methylsulfonyl) picolinamide]"
0.25 to 0.5,≥ 5,,"Cc1cc([C@@H](C)Nc2ccc(Cl)nc2C(=O)NS(C)(=O)=O)c2nc(N3CCC4(CCCN(c5ccn(C)n5)C4)C3)n(C)c(=O)c2c1 (stereo partly drawn) [Compound 708, 6-chloro-3-(((1R)-1-(3,6-dimethyl-2-(7-(1-methyl-1H-pyrazol-3-yl)-2,7-diazaspiro[4.5]decan-2-yl)-4-oxo-3,4-dihydroquinazolin-8-yl)ethyl)amino)-N-(methylsulfonyl) picolinamide]"
< 0.25,1 to 5,,"Cc1cc([C@@H](C)Nc2ccc(Cl)nc2C(=O)NS(C)(=O)=O)c2nc(N3CCC(c4nnc(C5CCC5)o4)CC3)n(C)c(=O)c2c1 [Compound 629, (R)-6-chloro-3-((1-(2-(4-(5-cyclobutyl-1,3,4-oxadiazol-2-yl)piperidin-1-yl)-3,6-dimethyl-4-oxo-3,4-dihydroquinazolin-8-yl)ethyl)amino)-N-(methylsulfonyl) picolinamide]"
